One may read the ΔTm as the change in melting temperature against a reference sample. As a reminder, the IC50 is the concentration at which inhibition is half-maximal. A higher IC50 goes with weaker potency.

In one assay the target is T1, ULK1 kinase domain (Homo sapiens, UniProt O75385).
T1 construct: The protein expression construct of ULK1 kinase domain (1-283) was cloned; 6His-Sumo (N, cleaved yes); made in house; host or cells: E. coli BL21 star, co-expressed with lambda phosphatase
T1 sequence (O75385 1-283): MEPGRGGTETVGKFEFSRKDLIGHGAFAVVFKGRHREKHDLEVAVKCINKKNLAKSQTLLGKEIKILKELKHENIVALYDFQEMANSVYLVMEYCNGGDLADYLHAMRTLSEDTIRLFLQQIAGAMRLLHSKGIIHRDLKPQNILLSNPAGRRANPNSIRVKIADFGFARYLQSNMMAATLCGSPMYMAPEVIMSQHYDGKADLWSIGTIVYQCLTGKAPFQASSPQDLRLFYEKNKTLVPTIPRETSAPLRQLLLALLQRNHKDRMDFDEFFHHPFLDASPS
Kind of assay: Differential scanning fluorimetry (thermal shift). In kind it is binding. The following applies: 2 μM ULK1 kinase domain, 50 μM compound, vs DMSO reference. A general note: Differential scanning fluorimetry follows unfolding on heating by fluorescence.

In the next assay the target is T2, ULK1 kinase (Homo sapiens, UniProt O75385).
T2 construct: purchased Reaction Biology
T2 sequence (O75385 1-1050): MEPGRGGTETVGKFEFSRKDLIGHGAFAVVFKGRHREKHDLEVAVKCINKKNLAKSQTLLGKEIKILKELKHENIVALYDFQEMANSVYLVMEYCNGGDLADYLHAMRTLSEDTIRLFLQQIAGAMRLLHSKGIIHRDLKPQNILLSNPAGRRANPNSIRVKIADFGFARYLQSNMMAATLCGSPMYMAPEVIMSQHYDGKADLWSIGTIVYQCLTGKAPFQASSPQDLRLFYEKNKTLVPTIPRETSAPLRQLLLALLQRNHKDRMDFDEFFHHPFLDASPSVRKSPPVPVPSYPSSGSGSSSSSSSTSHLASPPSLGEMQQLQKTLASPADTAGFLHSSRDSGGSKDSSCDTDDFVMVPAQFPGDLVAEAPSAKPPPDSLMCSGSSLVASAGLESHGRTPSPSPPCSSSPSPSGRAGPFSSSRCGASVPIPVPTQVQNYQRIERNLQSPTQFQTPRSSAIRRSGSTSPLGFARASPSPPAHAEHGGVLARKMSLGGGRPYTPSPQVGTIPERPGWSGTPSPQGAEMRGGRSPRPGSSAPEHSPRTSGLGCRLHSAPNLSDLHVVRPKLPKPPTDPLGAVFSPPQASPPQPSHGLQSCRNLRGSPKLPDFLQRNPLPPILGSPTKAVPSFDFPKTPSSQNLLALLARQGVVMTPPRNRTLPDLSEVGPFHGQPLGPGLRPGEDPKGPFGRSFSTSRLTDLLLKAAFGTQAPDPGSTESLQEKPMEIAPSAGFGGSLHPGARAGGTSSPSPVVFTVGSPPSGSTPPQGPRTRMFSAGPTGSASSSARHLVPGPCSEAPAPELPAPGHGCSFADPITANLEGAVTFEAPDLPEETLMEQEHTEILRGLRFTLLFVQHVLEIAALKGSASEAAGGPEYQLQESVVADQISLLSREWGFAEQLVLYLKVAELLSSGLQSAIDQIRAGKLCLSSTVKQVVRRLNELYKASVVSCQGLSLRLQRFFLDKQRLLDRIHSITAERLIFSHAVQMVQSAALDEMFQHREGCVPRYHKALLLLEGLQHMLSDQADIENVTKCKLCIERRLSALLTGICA
In words: Radiometric HotSpot kinase assay (Reaction Biology). In kind it is biochemical. The following applies: activity-based ULK1 kinase assay.

The target of a further assay is T3, GST-ULK1 (Homo sapiens, UniProt O75385).
T3 sequence (O75385 1-1050): T2 sequence (O75385 1-1050)
Kind of assay: LanthaScreen ULK1 inhibitor assay. The format is biochemical. As to conditions: 5 nM GST-ULK1, 30 nM tracer, 20 μM ATP, 1 hr room temperature. For orientation: Time-resolved FRET reads energy transfer from a long-lived donor to a nearby acceptor.

On to `O=C(NC(CO)CO)c1cccc(-c2cnc3[nH]c(-c4ccc(F)cc4)cc3c2)c1` [Compound 49, N-(1,3-Dihydroxypropan-2-yl)-3-(2-(4-fluorophenyl)-1H-pyrrolo[2,3-b]pyridin-5-yl)benzamide], for which the ΔTm at 50 µM at ULK1 kinase domain is 5.11 °C. Moreover, the IC50 came to 341 nM on ULK1 kinase and 543 nM on GST-ULK1.

On GST-ULK1, `FC(F)(F)c1cnc2[nH]c(C3=CCCNC3)cc2c1NCCN1CCOCC1` [Compound 116] gave an IC50 of 201 nM.

For the compound `FC1(F)CN(c2c(C(F)(F)F)cnc3[nH]c(C4CCOCC4)cc23)C1` [Compound 85, 4-(3,3-difluoroazetidin-1-yl)-2-(tetrahydro-2H-pyran-4-yl)-5-(trifluoromethyl)-1H-pyrrolo[2,3-b]pyridine], the ΔTm at 50 µM at ULK1 kinase domain turned out to be 0.54 °C.

For the compound `CC[C@H](CO)NC(=O)c1nc(-c2cnc3[nH]c(-c4ccc(F)cc4)cc3c2)cs1` [Compound 62, (R)-4-(2-(4-Fluorophenyl)-1H-pyrrolo[2,3-b]pyridin-5-yl)-N-(1-hydroxybutan-2-yl)-thiazole-2-carboxamide], the ΔTm at 50 µM at ULK1 kinase domain came out at 4.81 °C. Further, the IC50 came out at 78 nM against ULK1 kinase and 182 nM against GST-ULK1.

As to `CC[C@H](CO)NC(=O)c1cccc(-c2cnc3[nH]c(-c4ccc(F)cc4)cc3c2)c1` [Compound 53, (R)-3-(2-(4-Fluorophenyl)-1H-pyrrolo[2,3-b]pyridin-5-yl)-N-(1-hydroxybutan-2-yl)benzamide], the shift in melting temperature (ΔTm) at 50 µM on ULK1 kinase domain came out at 3.11 °C. Moreover, the IC50 amounted to 66 nM on ULK1 kinase and 94 nM at GST-ULK1.

For `CC(C)(C)OC(=O)N1CCC(c2cc3cc(-c4csc(C(=O)NCC(F)(F)F)c4)cnc3[nH]2)CC1` [Compound 40, tert-Butyl 4-(5-(5-((2,2,2-trifluoroethyl)carbamoyl)thiophen-3-yl)-1H-pyrrolo[2,3-b]-pyridin-2-yl)piperidine-1-carboxylate], on ULK1 kinase domain, the ΔTm at 50 µM was determined as 1.63 °C.

For the compound `CN1CC=C(c2cc3c(NCCN4CCOCC4)c(C(F)(F)F)cnc3[nH]2)CC1` [Compound 99, 2-(1-methyl-1,2,3,6-tetrahydropyridin-4-yl)-N-(2-morpholinoethyl)-5-(trifluoromethyl)-1H-pyrrolo[2,3-b]pyridin-4-amine], at ULK1 kinase domain, the ΔTm at 50 µM was 7.77 °C. The IC50 against ULK1 kinase was 625 nM; against GST-ULK1, 374 nM.

As to `O=C(NCC1(O)CC1)c1cc(-c2cnc3[nH]c(C4=CCNC4)cc3c2)cs1` [Compound 109], the IC50 against GST-ULK1 is 80 nM.

As for `O=C(NC[C@@H](O)CO)c1cccc(-c2cnc3[nH]c(-c4ccc(F)cc4)cc3c2)c1` [Compound 48, (R)—N-(2,3-Dihydroxypropyl)-3-(2-(4-fluorophenyl)-1H-pyrrolo[2,3-b]pyridin-5-yl)benzamide], the ΔTm at 50 µM on ULK1 kinase domain amounted to 4.52 °C. The values for the IC50 against ULK1 kinase and against GST-ULK1 were 261 nM and 475 nM, respectively.

Turning to `FC1(F)CN(c2c(C(F)(F)F)cnc3[nH]c(C4=CCOCC4)cc23)C1` [Compound 86, 4-(3,3-Difluoroazetidin-1-yl)-2-(3,6-dihydro-2H-pyran-4-yl)-5-(trifluoromethyl)-1H-pyrrolo[2,3-b]pyridine], the ΔTm at 50 µM at ULK1 kinase domain was found to be 6.82 °C. For the same compound, the results for the IC50 on ULK1 kinase and on GST-ULK1 were 56 nM and 172 nM, respectively.

On to `CC(C)(C)OC(=O)N1CCCC(c2cc3cc(-c4csc(C(=O)NCC(F)(F)F)c4)cnc3[nH]2)C1` (stereo not shown) [Compound 43, tert-Butyl 3-(5-(5-((2,2,2-trifluoroethyl)carbamoyl)thiophen-3-yl)-1H-pyrrolo[2,3-b]-pyridin-2-yl)piperidine-1-carboxylate], for which the ΔTm at 50 µM on ULK1 kinase domain was found to be 4.2 °C.

In the case of `CC[C@H](CO)NC(=O)c1cccc(-c2cnc3[nH]c(-c4ccc(F)cc4)cc3c2)n1` [Compound 56, (R)-6-(2-(4-Fluorophenyl)-1H-pyrrolo[2,3-b]pyridin-5-yl)-N-(1-hydroxybutan-2-yl)-picolinamide], the ΔTm at 50 µM on ULK1 kinase domain amounted to 6.85 °C. The figures for the IC50 on ULK1 kinase and at GST-ULK1 were 72 nM and 80 nM, respectively.

For the compound `Fc1ccc(-c2cc3c(NC4CCC4)c(C(F)(F)F)cnc3[nH]2)cc1` [Compound 82, N-cyclobutyl-2-(4-fluorophenyl)-5-(trifluoro-methyl)-1H-pyrrolo[2,3-b]pyridin-4-amine], the ΔTm at 50 µM on ULK1 kinase domain was determined as 4.39 °C. Besides, the results for the IC50 on ULK1 kinase and against GST-ULK1 were 9 nM and 24 nM, respectively.

Consider `FC(F)(F)c1cnc2[nH]c(C3=CCCNC3)cc2c1NCCCN1CCCC1` [Compound 119], for which, on GST-ULK1, the IC50 was 1600 nM.

`FC(F)(F)c1cnc2[nH]c(C3=CCCNC3)cc2c1NCCN1CCNCC1` [Compound 112] displayed a 50% inhibitory concentration (IC50) against GST-ULK1 of 8 nM.

For the compound `FC1(F)CCN(c2c(C(F)(F)F)cnc3[nH]c(C4CCOCC4)cc23)CC1` [Compound 92, 4-(4,4-difluoropiperidin-1-yl)-2-(tetrahydro-2H-pyran-4-yl)-5-(trifluoromethyl)-1H-pyrrolo[2,3-b]pyridine], the ΔTm at 50 µM at ULK1 kinase domain stood at 0.88 °C.

As to `CN1CCC(c2cc3c(NCCCN4CCCC4)c(C(F)(F)F)cnc3[nH]2)CC1` [Compound 94, 2-(1-methylpiperidin-4-yl)-N-(3-(pyrrolidin-1-yl)propyl)-5-(trifluoromethyl)-1H-pyrrolo[2,3-b]pyridin-4-amine], at ULK1 kinase domain, the ΔTm at 50 µM is 0.76 °C.

For `CS(=O)(=O)NC1CCN(C(=O)c2cc(-c3cnc4[nH]c(-c5ccc(F)cc5)cc4c3)cs2)C1` (stereo not shown) [Compound 9, N-(1-(4-(2-(4-Fluorophenyl)-1H-pyrrolo[2,3-b]pyridin-5-yl)thiophene-2-carbonyl)pyrrolidin-3-yl)methanesulfonamide], the ΔTm at 50 µM at ULK1 kinase domain came to 1.29 °C.

`FC(F)(F)c1cnc2[nH]c(C3=CCNC3)cc2c1NCCN1CCOCC1` [Compound 117] displayed an IC50 on GST-ULK1 of 85 nM.

Take `FC(F)(F)c1cnc2[nH]c(C3=CCNCC3)cc2c1NCCCN1CCCC1` [Compound 121]: the IC50 on GST-ULK1 is 320 nM.

On to `O=C(c1cc(-c2cnc3[nH]c(-c4ccc(F)cc4)cc3c2)cs1)N1CCC(NC(=O)C(F)(F)F)C1` (stereo not shown) [Compound 24, 2,2,2-Frifluoro-N-(1-(4-(2-(4-fluorophenyl)-1H-pyrrolo[2,3-b]pyridin-5-yl)thiophene-2-carbonyl)pyrrolidin-3-yl)acetamide], for which the ΔTm at 50 µM on ULK1 kinase domain is 0.4 °C.

Compound `FC(F)(F)c1cnc2[nH]c(C3=CCNCC3)cc2c1NCCN1CCOCC1` [Compound 118] returned an IC50 at GST-ULK1 of 126 nM.

The compound `O=C(NCC(F)(F)F)c1cc(-c2cnc3[nH]c(C4=CCN(C5CCC(C(=O)O)CC5)CC4)cc3c2)cs1` (stereo not shown) [compound 142] had an IC50 on GST-ULK1 of 88 nM.

At GST-ULK1, `FC1(F)CN(c2c(C(F)(F)F)cnc3[nH]c(C4=CCCNC4)cc23)C1` [Compound 141] came in with an IC50 of 884 nM.

Consider `FC(F)(F)c1cnc2[nH]c(C3=CCNCC3)cc2c1NCCN1CCNCC1` [Compound 114], for which the IC50 against GST-ULK1 is 14 nM.

In the case of `FC(F)(F)c1cnc2[nH]c(C3=CCNC3)cc2c1NCCCN1CCCC1` [Compound 120], the IC50 at GST-ULK1 was 1210 nM.

For the compound `FC1(F)CN(c2c(C(F)(F)F)cnc3[nH]c(C4=CCNCC4)cc23)C1` [Compound 115], the midpoint of inhibition on GST-ULK1, the IC50, lay at 81 nM.

For `O=C(c1nc(-c2cnc3[nH]c(-c4ccc(F)cc4)cc3c2)cs1)N1CC(F)(F)C1` [Compound 75, (3,3-difluoroazetidin-1-yl)(4-(2-(4-fluorophenyl)-1H-pyrrolo[2,3-b]-pyridin-5-yl)thiazol-2-yl)-methanone], the ΔTm at 50 µM at ULK1 kinase domain turned out to be 3 °C.

Turning to `CN1CCC(c2cc3c(N4CC(F)(F)C4)c(C(F)(F)F)cnc3[nH]2)CC1` [Compound 96, 4-(3,3-difluoroazetidin-1-yl)-2-(1-methylpiperidin-4-yl)-5-(trifluoromethyl)-1H-pyrrolo[2,3-b]pyridine], on ULK1 kinase domain, the thermal shift (ΔTm) at 50 µM is 3.09 °C.

The compound `FC(F)(F)c1cnc2[nH]c(C3=CCNC3)cc2c1NCCN1CCNCC1` [Compound 113] returned an IC50 at GST-ULK1 of 63 nM.

The values are drawn from patent US20250042895A1, “INHIBITORS OF ULK1 AND METHODS OF USE” (H. LEE MOFFITT CANCER CENTER AND RESEARCH INSTITUTE, INC., priority 2021, published 2025).
